16 compounds from patent publication US12433952B2, “Antibody-drug conjugates targeting folate receptor alpha and methods of use” (ZYMEWORKS BC INC., priority 2022, dated 2025) can be followed below.

Common to all, as to experiment: In vitro cytotoxicity of camptothecin analogues (CellTiter-Glo)
Holding throughout (assay type): cell-based

The subject of one assay is Calu-3 (lung cancer). As to conditions: Homo sapiens, Calu-3, 96 h, read-out: pIC50 Calu-3 (converted). As for the experimental part:
(§1) Cytotoxicity of the camptothecin analogues was assessed in vitro as follows.
(§2) In vitro potency was assessed on multiple cancer cell lines: SK-BR-3 (breast cancer), SKOV-3 (ovarian cancer), Calu-3 (lung cancer), ZR-75-1 (breast cancer) and MDA-MB-468 (breast cancer). Serial dilutions of camptothecin analogues were prepared in RPMI 1640+10% FBS, and 20 μL of each dilution was added to 384-well plates. Cells cultured in log-phase growth were detached by brief incubation in 0.05% Trypsin and resuspended in respective culturing media at 20,000 cells/mL (with the exception of ZR-75 cells, which were resuspended at 10,000 cells/mL). 50 μL of cell suspension was then added to the plates containing test articles. Cells were incubated with test articles for 4 d at 37° C. (with the exception of ZR-75 cells, which were incubated for 5 d). Growth inhibition was assessed by CellTiter-Glo® (Promega Corporation, Madison, WI) and luminescence was measured on a plate reader. IC50 values were determined by GraphPad Prism (GraphPad Software, San Diego CA).

In assay [1] the test system is MDA-MB-468 (breast cancer). The conditions noted are these: Homo sapiens, MDA-MB-468, 96 h, read-out: pIC50 MDA-MB-468 (converted). As for the experimental part:
as §1, §2

A further assay has as its system SK-BR-3 (breast cancer). As to conditions: Homo sapiens, SK-BR-3, 96 h, read-out: pIC50 SKBR-3 (converted). As for the experimental part: as §1, §2
The next assay deals with ZR-75-1 (breast cancer). The conditions noted are these: Homo sapiens, ZR-75-1, 120 h, read-out: pIC50 ZR-75 (converted). As for the experimental part:
as §1, §2

For the next assay, the system named is SKOV-3 (ovarian cancer). As to conditions: Homo sapiens, SK-OV-3, 96 h, read-out: pIC50 SKOV-3 (converted). As for the experimental part:
as §1, §2

Where two headings read alike, the source gives them in different places.

Take `CC[C@@]1(O)C(=O)OCc2c1cc1n(c2=O)Cc2c-1nc1cc(F)c(C)cc1c2CN1CCN(c2ccc(N)cc2)CC1` [Compound 108, (S)-11-((4-(4-aminophenyl)piperazin-1-yl)methyl)-4-ethyl-8-fluoro-4-hydroxy-9-methyl-1,12-dihydro-14H-pyrano[3′,4′:6,7]indolizino[1,2-b]quinoline-3,14(4H)-dione]: the IC50 was 40.7 nM in the assay on Calu-3 (lung cancer); 47.9 nM in assay [1]; 29.5 nM in the assay on SK-BR-3 (breast cancer); 18.6 nM in the assay on ZR-75-1 (breast cancer); 55 nM in the assay with SKOV-3 (ovarian cancer).
As to `CC[C@@]1(O)C(=O)OCc2c1cc1n(c2=O)Cc2c-1nc1cc(F)c(C)cc1c2CN1CCN(S(=O)(=O)c2ccccc2)CC1` [Compound 102, (S)-4-ethyl-8-fluoro-4-hydroxy-9-methyl-11-((4-(phenylsulfonyl)piperazin-1-yl)methyl)-1,12-dihydro-14H-pyrano[3′,4′:6,7]indolizino[1,2-b]quinoline-3,14(4H)-dione], the IC50 was 2.34 nM in assay [1] (4 d incubation), 0.933 nM with SK-BR-3 (breast cancer) (4 d incubation), 0.794 nM in the assay with ZR-75-1 (breast cancer) (5 d incubation) and 2.14 nM in the assay on SKOV-3 (ovarian cancer) (4 d incubation).
For the compound `CC[C@@]1(O)C(=O)OCc2c1cc1n(c2=O)Cc2c-1nc1cc(F)c(C)cc1c2CNC(=O)NC` [Compound 132, (S)-1-((4-ethyl-8-fluoro-4-hydroxy-9-methyl-3,14-dioxo-3,4,12,14-tetrahydro-1H-pyrano[3′,4′:6,7]indolizino[1,2-b]quinolin-11-yl)methyl)-3-methylurea], the IC50 with Calu-3 (lung cancer) (4 d incubation) was 51.3 nM; in assay [1] (4 d incubation), 26.9 nM; in the assay with SK-BR-3 (breast cancer) (4 d incubation) it was 22.9 nM; in the assay with ZR-75-1 (breast cancer) (5 d incubation) it was 15.5 nM; in the assay with SKOV-3 (ovarian cancer) (4 d incubation) it was 105 nM.
On to `CC[C@@]1(O)C(=O)OCc2c1cc1n(c2=O)Cc2c-1nc1cc(F)c(C)cc1c2CNC(=O)OC` [Compound 138, Methyl-(S)-((4-ethyl-8-fluoro-4-hydroxy-9-methyl-3,14-dioxo-3,4,12,14-tetrahydro-1H-pyrano[3′,4′:6,7]indolizino[1,2-b]quinolin-11-yl)methyl)carbamate], for which the IC50 with Calu-3 (lung cancer) (4 d incubation) was 0.389 nM; in assay [1] (4 d incubation), 0.871 nM; in the assay on SK-BR-3 (breast cancer) (4 d incubation) it was 0.479 nM; in the assay on ZR-75-1 (breast cancer) (5 d incubation) it was 0.195 nM; in the assay with SKOV-3 (ovarian cancer) (4 d incubation) it was 0.617 nM.
On to `CC[C@@]1(O)C(=O)OCc2c1cc1n(c2=O)Cc2c-1nc1cc(F)c(C)cc1c2CNS(=O)(=O)CCO` [Compound 129, (S)—N-((4-ethyl-8-fluoro-4-hydroxy-9-methyl-3,14-dioxo-3,4,12,14-tetrahydro-1H-pyrano[3′,4′:6,7]indolizino[1,2-b]quinolin-11-yl)methyl)-2-hydroxyethane-1-sulfonamide], for which the IC50 with Calu-3 (lung cancer) (4 d incubation) is 5.25 nM; in assay [1] (4 d incubation) it was 3.98 nM; in the assay on SK-BR-3 (breast cancer) (4 d incubation) it was 3.09 nM; in the assay on ZR-75-1 (breast cancer) (5 d incubation), 2.63 nM; in the assay on SKOV-3 (ovarian cancer) (4 d incubation) it was 20.4 nM.
Regarding `CC[C@@]1(O)C(=O)OCc2c1cc1n(c2=O)Cc2c-1nc1cc(F)c(OC)cc1c2CNS(=O)(=O)c1ccc(N)cc1` [Compound 128, (S)-4-amino-N-((4-ethyl-8-fluoro-4-hydroxy-9-methoxy-3,14-dioxo-3,4,12,14-tetrahydro-1H-pyrano[3′,4′:6,7]indolizino[1,2-b]quinolin-11-yl)methyl)benzenesulfonamide], the IC50 was 8.32 nM in assay [1], 5.25 nM in the assay with SK-BR-3 (breast cancer), 4.27 nM in the assay on ZR-75-1 (breast cancer) and 18.2 nM in the assay on SKOV-3 (ovarian cancer).
In the case of `CC[C@@]1(O)C(=O)OCc2c1cc1n(c2=O)Cc2c-1nc1cc(F)c(N)cc1c2CNS(=O)(=O)CCO` [Compound 150, (S)—N-((9-amino-4-ethyl-8-fluoro-4-hydroxy-3,14-dioxo-3,4,12,14-tetrahydro-1H-pyrano[3′,4′:6,7]indolizino[1,2-b]quinolin-11-yl)methyl)-2-hydroxyethane-1-sulfonamide], the IC50 in the assay with SK-BR-3 (breast cancer) (4 d incubation) is 7.94 nM; in the assay with ZR-75-1 (breast cancer) (5 d incubation) it was 6.46 nM; in the assay with SKOV-3 (ovarian cancer) (4 d incubation), 63.1 nM.
As for `CC[C@@]1(O)C(=O)OCc2c1cc1n(c2=O)Cc2c-1nc1cc(F)c(OC)cc1c2CNC(=O)NC` [Compound 133, (S)-1-((4-ethyl-8-fluoro-4-hydroxy-9-methoxy-3,14-dioxo-3,4,12,14-tetrahydro-1H-pyrano[3′,4′:6,7]indolizino[1,2-b]quinolin-11-yl)methyl)-3-methylurea], the IC50 with Calu-3 (lung cancer) (4 d incubation) is 12 nM; in assay [1] (4 d incubation) it was 10.7 nM; in the assay on SK-BR-3 (breast cancer) (4 d incubation) it was 6.76 nM; with ZR-75-1 (breast cancer) (5 d incubation), 9.77 nM; in the assay on SKOV-3 (ovarian cancer) (4 d incubation), 74.1 nM.
Take `CC[C@@]1(O)C(=O)OCc2c1cc1n(c2=O)Cc2c-1nc1cc(F)c(C)cc1c2CN1CCOCC1` [Compound 100, (S)-4-ethyl-8-fluoro-4-hydroxy-9-methyl-11-(morpholinomethyl)-1,12-dihydro-14H-pyrano[3′,4′:6,7]indolizino[1,2-b]quinoline-3,14(4H)-dione]: the IC50 was 1.12 nM in the assay on Calu-3 (lung cancer) (4 d incubation); 2.51 nM in assay [1] (4 d incubation); 1.1 nM with SK-BR-3 (breast cancer) (4 d incubation); 1.23 nM with ZR-75-1 (breast cancer) (5 d incubation); 2.29 nM in the assay on SKOV-3 (ovarian cancer) (4 d incubation).
For `CC[C@@]1(O)C(=O)OCc2c1cc1n(c2=O)Cc2c-1nc1cc(F)c(C)cc1c2CN1CCCCC1` [Compound 110, (S)-4-ethyl-8-fluoro-4-hydroxy-9-methyl-11-(piperidin-1-ylmethyl)-1,12-dihydro-14H-pyrano[3′,4′:6,7]indolizino[1,2-b]quinoline-3,14(4H)-dione], in that order: 0.813 nM, 1.55 nM, 1.32 nM, 0.851 nM and 0.933 nM.
In the case of `CC[C@@]1(O)C(=O)OCc2c1cc1n(c2=O)Cc2c-1nc1cc(F)c(OC)cc1c2CN1CCOCC1` [Compound 101, (S)-4-ethyl-8-fluoro-4-hydroxy-9-methoxy-11-(morpholinomethyl)-1,12-dihydro-14H-pyrano[3′,4′:6,7]indolizino[1,2-b]quinoline-3,14(4H)-dione], the IC50 in assay [1] (4 d incubation) is 2.57 nM; in the assay with SK-BR-3 (breast cancer) (4 d incubation) it was 1.07 nM; in the assay on ZR-75-1 (breast cancer) (5 d incubation) it was 1.07 nM; in the assay on SKOV-3 (ovarian cancer) (4 d incubation), 1.58 nM.
Consider `CC[C@@]1(O)C(=O)OCc2c1cc1n(c2=O)Cc2c-1nc1cc(F)c(N)cc1c2CNC(=O)OC` [Compound 143, Methyl (S)-((9-amino-4-ethyl-8-fluoro-4-hydroxy-3,14-dioxo-3,4,12,14-tetrahydro-1H-pyrano[3′,4′:6,7]indolizino[1,2-b]quinolin-11-yl)methyl)carbamate], for which the IC50 is 0.708 nM in the assay with Calu-3 (lung cancer) (4 d incubation); 0.708 nM in assay [1] (4 d incubation); 0.389 nM in the assay on SK-BR-3 (breast cancer) (4 d incubation); 0.851 nM in the assay on ZR-75-1 (breast cancer) (5 d incubation); 2.82 nM with SKOV-3 (ovarian cancer) (4 d incubation).
As to `CC[C@@]1(O)C(=O)OCc2c1cc1n(c2=O)Cc2c-1nc1cc(F)c(N)cc1c2CNS(C)(=O)=O` [Compound 146, (S)—N-((9-amino-4-ethyl-8-fluoro-4-hydroxy-3,14-dioxo-3,4,12,14-tetrahydro-1H-pyrano[3′,4′:6,7]indolizino[1,2-b]quinolin-11-yl)methyl)methanesulfonamide], the IC50 in the assay on Calu-3 (lung cancer) (4 d incubation) is 4.37 nM; in assay [1] (4 d incubation), 4.37 nM; in the assay on SK-BR-3 (breast cancer) (4 d incubation), 1.74 nM; in the assay on ZR-75-1 (breast cancer) (5 d incubation), 6.03 nM; in the assay with SKOV-3 (ovarian cancer) (4 d incubation) it was 11.2 nM.
With `CC[C@@]1(O)C(=O)OCc2c1cc1n(c2=O)Cc2c-1nc1cc(F)c(OC)cc1c2CN1CCN(c2ccc(N)cc2)CC1` [Compound 109, (S)-11-((4-(4-aminophenyl)piperazin-1-yl)methyl)-4-ethyl-8-fluoro-4-hydroxy-9-methoxy-1,12-dihydro-14H-pyrano[3′,4′:6,7]indolizino[1,2-b]quinoline-3,14(4H)-dione], the IC50 in assay [1] (4 d incubation) is 8.13 nM; with SK-BR-3 (breast cancer) (4 d incubation), 5.75 nM; in the assay with ZR-75-1 (breast cancer) (5 d incubation), 5.01 nM; in the assay on SKOV-3 (ovarian cancer) (4 d incubation), 7.08 nM.
With `CC[C@@]1(O)C(=O)OCc2c1cc1n(c2=O)Cc2c-1nc1cc(F)c(C)cc1c2CNS(N)(=O)=O` [Compound 131, (S)—N-((4-ethyl-8-fluoro-4-hydroxy-9-methyl-3,14-dioxo-3,4,12,14-tetrahydro-1H-pyrano[3′,4′:6,7]indolizino[1,2-b]quinolin-11-yl)methyl)methanesulfamide], the IC50 is 9.12 nM in the assay with Calu-3 (lung cancer), 9.12 nM in assay [1], 1.05 nM in the assay on SK-BR-3 (breast cancer) and 0.955 nM in the assay on ZR-75-1 (breast cancer).
Consider `CC[C@@]1(O)C(=O)OCc2c1cc1n(c2=O)Cc2c-1nc1cc(F)c(OC)cc1c2CN1CCN(C)CC1` [Compound 107, (S)-4-ethyl-8-fluoro-4-hydroxy-9-methoxy-11-((4-methylpiperazin-1-yl)methyl)-1,12-dihydro-14H-pyrano[3′,4′:6,7]indolizino[1,2-b]quinoline-3,14(4H)-dione], for which the IC50 with Calu-3 (lung cancer) (4 d incubation) was 4.07 nM; in assay [1] (4 d incubation), 3.89 nM; with SK-BR-3 (breast cancer) (4 d incubation), 3.09 nM; in the assay with ZR-75-1 (breast cancer) (5 d incubation), 2.75 nM.
